Reference: patent US20130059812A1 (priority 2010, published 2013)

Experiments:
HBV = test: Antiviral efficacy test in the treatment of chronic hepatitis B patients; format: in vivo; conditions: n=20 per group
Description: A total of 40 patients were divided into two groups, to one of which 30 mg of clevudine was administered daily for 24 weeks (group treated with clevudine only; n=20). To another group, a combined formulation of 30 mg of clevudine and 10 mg of adefovir dipivoxil was administered daily for 12 weeks, then administration of adefovir dipivoxil was stopped and only 30 mg of clevudine was administered daily for the remaining period (group treated with combined formulation of clevudine+adefovir dipivoxil; n=20).

wild-type HBV = test: microbe, parasite or virus in culture; format: cell-based, Hepatitis B virus (HBV); conditions: Huh-7 cells, 4th day of transfection, clevudine 0.9 μM
Description: About 20˜24 hours before the transfection, Huh-7 cell lines were maintained on 6-well plates to be 4×10^5 cells/well with 70˜80% confluence and then cultured. 2 hours before the transfection, the culture medium was removed from the stabilized cells and replaced with a serum-free medium containing clevudine, adefovir dipivoxil or a combined preparation of clevudine and adefovir dipivoxil in a predetermined dilution to be 2 mL/well. Using lipofectamine (Invitrogen), the cells were transfected with wild-type HBV DNA to be 2 μg per well. The concentration of antiviral agents was 0.9 μM of clevudine, 6.3 μM of adefovir dipivoxil, 0.9 μM+6.3 μM of clevudine+adefovir dipivoxil or 1.8 μM+6.3 μM of clevudine+adefovir dipivoxil. About 5 hours after the transfection, the culture medium was replaced with that treated with the antiviral agents, and then the medium was replaced every 24 hours.
On the 4th day of the transfection, the cells were washed with cold PBS and then collected. […]
Electrophoresis was carried out with the separated HBV DNA on 1% agarose gel, which was then transferred to a positively charged nylon membrane. […] An antiviral effect of the combined formulation of clevudine and adefovir dipivoxil was determined using phosphor imager compared with single treatment of clevudine or adefovir dipivoxil.

[1] = test system: patient-derived rtM204I mutant virus; format: cell-based, Hepatitis B virus (HBV); conditions: untreated control group = 100%, Huh-7 cells, 4th day, clevudine 0.9 μM, adefovir dipivoxil 6.3 μM, combination 0.9 μM+6.3 μM
Description: About 20˜24 hours before the transfection, Huh-7 cell lines were maintained on 6-well plates to be 4×10^5 cells/well with 70˜80% confluence and then cultured. 2 hours before the transfection, the culture medium was removed from the stabilized cells and replaced with a serum-free medium containing clevudine, adefovir dipivoxil or a combined formulation of clevudine and adefovir dipivoxil in a predetermined dilution to be 2 mL/well. Using lipofectamine (Invitrogen), the cells were transfected with HBV mutant DNA to be 2 μg per well. The concentration of antiviral agents was 0.9 μM of clevudine, 6.3 μM of adefovir dipivoxil, 0.9 μM+6.3 μM of clevudine+adefovir dipivoxil or 1.8 μM+6.3 μM of clevudine+adefovir dipivoxil. About 5 hours after the transfection, the culture medium was replaced with that treated with the antiviral agents, and then the medium was replaced every 24 hours.
On the 4th day of the transfection, the cells were washed with cold PBS and then collected. The collected cells were lysed with cold Hepes lysis buffer (1% NP-40) and then centrifuged. The supernatant was treated with nuclease to remove DNA of the transfected cells. Core protein of capsid form was precipitated with 26% PEG solution. The capsid protein was removed by 0.5% SDS solution and Proteinase K and then HBV DNA in the capsid was separated. […]

Cc1cn([C@H]2O[C@@H](CO)[C@H](O)[C@H]2F)c(=O)[nH]c1=O [clevudine, 1-(2′-deoxy-2′-fluoro-β-L-arabinofuranosyl)thymine]
number of HBV DNA copy (HBV; 12 weeks after the administration, 30 mg clevudine daily, or 30 mg clevudine + 10 mg adefovir dipivoxil daily): −2.67 log 10 copies/mL
number of HBV DNA copy (HBV; 24 weeks after the administration, 30 mg clevudine daily for 24 weeks, or combination for 12 weeks then only 30 mg clevudine daily): −4.15 log 10 copies/mL
inhibition at 0.9 µM (wild-type HBV; Hepatitis B virus, concentration of the combination not stated, read-out: inhibition rate of wild-type HBV replication): 34.1%
rate of wild-type HBV replication (wild-type HBV; untreated control group = 100%, adefovir dipivoxil 6.3 μM, concentration of the combination not stated (0.9 μM+6.3 μM or 1.8 μM+6.3 μM)): 65.91%
rate of mutant virus replication [1]: 87.43%
